Bridge positions count the residues as written; N and C are the ends. Square brackets hold non-standard residues; d marks the D form. Peptide text beside a SMILES is read from it. NMeW = CN[C@@H](Cc1c[nH]c2ccccc12)C(=O)O
What was measured:
Melanocortin receptor 4 [1] = target: T1, Melanocortin receptor 4 (Homo sapiens, UniProt P32245); assay: Agonist activity at human melanocortin receptor 4 expressed in human T-REx-293 cells using low doxycycline assessed as stimulation of intracellular cAMP accumulation incubated for 45 mins by LANCE cAMP assay; assay type: functional, cell-based
Melanocortin receptor 4 [2] = target: T1, Melanocortin receptor 4; assay: Displacement of [125I]-NDP-alpha-MSH from human MC4R expressed in HEK2936E cell membrane measured after 16-23 hrs by 1450 microbeta trilux scintillation proximity assay; assay type: cell membranes
Melanocortin receptor 3 [3] = target: T2, Melanocortin receptor 3 (Homo sapiens, UniProt P41968); assay: Displacement of [125I]-NDP-alpha-MSH from human MC3R expressed in HEK2936E cell membrane measured after 16-23 hrs by 1450 microbeta trilux scintillation proximity assay; assay type: cell membranes
Melanocortin receptor 4 [4] = target: T1, Melanocortin receptor 4; assay: Agonist activity at human melanocortin receptor 4 expressed in human T-REx-293 cells using high doxycycline assessed as stimulation of intracellular cAMP accumulation incubated for 45 mins by LANCE cAMP assay; assay type: functional
[5] = target: T3, Melanocyte-stimulating hormone receptor (Homo sapiens, UniProt Q01726); assay: Agonist activity at human melanocortin receptor 1 expressed in human T-Rex-293 cells assessed as stimulation of intracellular cAMP accumulation incubated for 45 mins by LANCE cAMP assay; assay type: functional, cell-based
[6] = target: T3, Melanocyte-stimulating hormone receptor; assay: Displacement of [125I]-NDP-alpha-MSH from human MC1R expressed in HEK2936E cell membrane measured after 16-23 hrs by 1450 microbeta trilux scintillation proximity assay; assay type: cell membranes
Melanocortin receptor 5 = Melanocortin receptor 5 (Homo sapiens, UniProt P33032); assay: Displacement of [125I]-NDP-alpha-MSH from human MC5R expressed in HEK2936E cell membrane measured after 16-23 hrs by 1450 microbeta trilux scintillation proximity assay; assay type: cell membranes
Melanocortin receptor 3 [7] = target: T2, Melanocortin receptor 3; assay: Agonist activity at human melanocortin receptor 3 expressed in human T-REx-293 cells assessed as stimulation of intracellular cAMP accumulation incubated for 45 mins by LANCE cAMP assay; assay type: functional, cell-based

Sequence of Melanocortin receptor 5 (P33032 whole entry): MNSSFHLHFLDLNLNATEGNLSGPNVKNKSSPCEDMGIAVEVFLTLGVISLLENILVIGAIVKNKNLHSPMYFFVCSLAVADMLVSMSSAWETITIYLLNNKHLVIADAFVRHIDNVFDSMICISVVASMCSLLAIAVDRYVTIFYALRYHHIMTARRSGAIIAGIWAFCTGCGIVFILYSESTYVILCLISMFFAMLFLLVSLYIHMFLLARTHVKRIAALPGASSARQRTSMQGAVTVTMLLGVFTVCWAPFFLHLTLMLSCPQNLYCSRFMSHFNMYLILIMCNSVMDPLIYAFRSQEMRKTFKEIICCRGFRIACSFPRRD
T3 sequence (Q01726 whole entry): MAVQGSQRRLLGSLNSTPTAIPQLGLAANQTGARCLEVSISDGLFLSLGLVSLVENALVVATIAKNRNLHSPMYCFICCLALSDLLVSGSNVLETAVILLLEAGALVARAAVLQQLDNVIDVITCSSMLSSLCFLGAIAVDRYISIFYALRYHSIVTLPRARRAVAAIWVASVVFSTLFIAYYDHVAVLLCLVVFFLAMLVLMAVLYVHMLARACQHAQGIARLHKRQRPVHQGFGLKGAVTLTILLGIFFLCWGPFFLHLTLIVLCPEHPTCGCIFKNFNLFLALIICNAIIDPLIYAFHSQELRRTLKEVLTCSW
T1 sequence (P32245 whole entry): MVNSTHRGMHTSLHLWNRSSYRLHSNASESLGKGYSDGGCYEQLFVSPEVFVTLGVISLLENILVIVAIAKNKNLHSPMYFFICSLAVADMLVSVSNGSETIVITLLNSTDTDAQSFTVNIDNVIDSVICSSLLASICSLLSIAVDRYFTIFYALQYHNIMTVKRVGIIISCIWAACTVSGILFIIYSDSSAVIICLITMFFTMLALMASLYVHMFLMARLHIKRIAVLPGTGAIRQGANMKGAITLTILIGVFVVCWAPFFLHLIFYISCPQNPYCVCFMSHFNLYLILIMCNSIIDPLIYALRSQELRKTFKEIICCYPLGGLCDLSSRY
T2 sequence (P41968 whole entry): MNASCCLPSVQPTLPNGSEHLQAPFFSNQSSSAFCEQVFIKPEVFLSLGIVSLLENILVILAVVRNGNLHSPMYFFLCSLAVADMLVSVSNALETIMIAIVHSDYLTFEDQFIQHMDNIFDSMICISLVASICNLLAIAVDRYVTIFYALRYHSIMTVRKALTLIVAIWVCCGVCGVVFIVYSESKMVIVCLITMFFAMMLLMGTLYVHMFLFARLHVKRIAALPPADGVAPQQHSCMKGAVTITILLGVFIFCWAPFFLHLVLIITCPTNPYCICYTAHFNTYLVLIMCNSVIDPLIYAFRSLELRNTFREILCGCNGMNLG

| SMILES | EC50 (Melanocortin receptor 4 [1]) [nM] | Ki (Melanocortin receptor 4 [2]) [nM] | Ki (Melanocortin receptor 3 [3]) [nM] | EC50 (Melanocortin receptor 4 [4]) [nM] | EC50 [5] [nM] | Ki [6] [nM] | IC50 (Melanocortin receptor 5) [nM] | EC50 (Melanocortin receptor 3 [7]) [nM] |
| --- | --- | --- | --- | --- | --- | --- | --- | --- |
| CC[C@H](C)[C@@H]1NC(=O)[C@@H]2CCCN2C(=O)[C@H](Cc2c[nH]c3ccccc23)N(C)C(=O)[C@H](CCCNC(=N)N)NC(=O)[C@@H](Cc2ccccc2)NC(=O)[C@H](Cc2cnc[nH]2)NC(=O)[C@H]([C@@H](C)O)NC(=O)[C@@H]2CSSC[C@H](NC1=O)C(=O)N[C@@H](Cc1ccccc1)C(=O)N1CCC[C@H]1C(=O)N[C@@H](CC(=O)O)C(=O)NCC(=O)N[C@@H](CCCNC(=N)N)C(=O)N2 (cyclo(CFPDGRCTH[dF]R[NMeW]PI); disulfide 1-7) | 46.8 | 617 | > 1000 | 3.09 | 64.6 | 339 | 1000 | 282 |
| CC[C@H](C)[C@@H]1NC(=O)[C@@H]2CCCN2C(=O)[C@H](Cc2c[nH]c3ccccc23)NC(=O)[C@H](CCCNC(=N)N)N(C)C(=O)[C@@H](Cc2ccccc2)NC(=O)[C@H](Cc2c[nH]cn2)NC(=O)[C@H]([C@@H](C)O)NC(=O)[C@@H]2CSSC[C@H](NC1=O)C(=O)N[C@@H](Cc1c[nH]cn1)C(=O)N[C@H](Cc1ccccc1)C(=O)N[C@@H](CCCNC(=N)N)C(=O)N[C@@H](Cc1ccc3ccccc3c1)C(=O)N[C@@H](C)C(=O)N2 | 2.69 | 8.13 | 50.1 | 0.275 | > 0.0501 | 0.724 | 89.1 | 2.19 |
| CC[C@H](C)[C@@H]1NC(=O)[C@@H]2CCCN2C(=O)[C@H](Cc2c[nH]c3ccccc23)NC(=O)[C@H](CCCNC(=N)N)N(C)C(=O)[C@@H](Cc2ccccc2)NC(=O)[C@H](Cc2c[nH]cn2)NC(=O)[C@H]([C@@H](C)O)NC(=O)[C@@H]2CSSC[C@H](NC1=O)C(=O)N[C@@H](Cc1c[nH]cn1)C(=O)N[C@H](Cc1ccccc1)C(=O)N[C@@H](CCC(=O)O)C(=O)N[C@@H](Cc1c[nH]c3ccccc13)C(=O)N[C@@H](CCCNC(=N)N)C(=O)N2 | 105 | 309 | 5010 | 3.89 | 3.63 | 41.7 | 2690 | 95.5 |
| CC[C@H](C)[C@@H]1NC(=O)[C@@H]2CCCN2C(=O)[C@H](Cc2c[nH]c3ccccc23)NC(=O)[C@H](CCCNC(=N)N)N(C)C(=O)[C@@H](Cc2ccccc2)NC(=O)[C@H](Cc2c[nH]cn2)NC(=O)[C@H]([C@@H](C)O)NC(=O)[C@@H]2CSSC[C@H](NC1=O)C(=O)N[C@@H](Cc1c[nH]cn1)C(=O)N[C@@H](C)C(=O)N[C@@H](CCCNC(=N)N)C(=O)N[C@@H](Cc1c[nH]c3ccccc13)C(=O)N[C@@H](CCCNC(=N)N)C(=O)N2 | 3.47 | 10.7 | 389 | 0.302 | 0.794 | 2.82 | 676 | 6.61 |
| CC[C@H](C)[C@@H]1NC(=O)[C@@H]2CCCN2C(=O)[C@H](Cc2c[nH]c3ccccc23)NC(=O)[C@H](CCCNC(=N)N)N(C)C(=O)[C@@H](Cc2ccccc2)NC(=O)[C@H](Cc2c[nH]cn2)NC(=O)[C@H]([C@@H](C)O)NC(=O)[C@@H]2CSSC[C@H](NC1=O)C(=O)N[C@@H](Cc1c[nH]cn1)C(=O)N[C@H](Cc1ccccc1)C(=O)N[C@@H](C)C(=O)N[C@@H](Cc1c[nH]c3ccccc13)C(=O)N[C@@H](CCCNC(=N)N)C(=O)N2 | 44.7 | 91.2 | 1150 | 2.19 | 2.24 | 15.1 | 589 | 56.2 |
| CC[C@H](C)[C@@H]1NC(=O)[C@H](C)NC(=O)[C@H](Cc2c[nH]c3ccccc23)NC(=O)[C@H](CCCNC(=N)N)N(C)C(=O)[C@@H](Cc2ccccc2)NC(=O)[C@H](Cc2c[nH]cn2)NC(=O)[C@H]([C@@H](C)O)NC(=O)[C@@H]2CSSC[C@H](NC1=O)C(=O)N[C@@H](Cc1c[nH]cn1)C(=O)N[C@H](Cc1ccccc1)C(=O)N[C@@H](CCCNC(=N)N)C(=O)N[C@@H](Cc1c[nH]c3ccccc13)C(=O)N[C@@H](C)C(=O)N2 | 1.23 | 25.7 | 107 | 0.132 | 0.0912 | 1.41 | 170 | 1.15 |

From ChEMBL document CHEMBL5034014, “Melanocortin 1 Receptor Agonists Based on a Bivalent, Bicyclic Peptide Framework” (J Med Chem, 2021)
